Measured values from patent US8063048B2, “Acetylenyl-pyrazolo-pyrimidine derivatives” (Hoffmann-La Roche Inc., priority 2005, dated 2011).

Row | SMILES | melting point
1 | CC(C)(C)OC(=O)NCCNS(=O)(=O)c1cc(C#Cc2cnn3c(C(F)F)cc(-c4ccc(C(F)(F)F)cc4)nc23)c(F)cc1F [Example 185, (2-{5-[7-Difluoromethyl-5-(4-trifluoromethyl-phenyl)-pyrazolo[1,5-a]pyrimidin-3-ylethynyl]-2,4-difluoro-benzenesulfonylamino}-ethyl)-carbamic acid tert-butyl ester] | 203 to 204 °C (dec.)
2 | Cc1cc(-c2ccc(C(F)(F)F)cc2)cn2c(C#Cc3ccc(N)nc3)cnc12 [Example 209, 5-[8-Methyl-6-(4-trifluoromethyl-phenyl)-imidazo[1,2-a]pyridin-3-ylethynyl]-pyridin-2-ylamine] | 239 to 240 °C
3 | Cc1cc(C#Cc2cnn3c(C(F)(F)F)cc(-c4ccc(C(F)(F)F)cc4)nc23)cnc1N [Example 127, 3-Methyl-5-[7-trifluoromethyl-5-(4-trifluoromethyl-phenyl)-pyrazolo[1,5-a]pyrimidin-3-ylethynyl]-pyridin-2-ylamine] | 233 to 234 °C
4 | FC(F)(F)c1cccc(-c2cc(C(F)(F)F)n3ncc(C#Cc4cccnc4)c3n2)c1 [Example 103, 3-Pyridin-3-ylethynyl-7-trifluoromethyl-5-(3-trifluoromethyl-phenyl)-pyrazolo[1,5-a]pyrimidine] | 173 °C
5 | O=S(=O)(c1ccc(C#Cc2cnn3c(C(F)F)cc(-c4cccc(C(F)(F)F)c4)nc23)s1)N(CCO)CCO [Example 264, 5-[7-Difluoromethyl-5-(3-trifluoromethyl-phenyl)-pyrazolo[1,5-a]pyrimidin-3-ylethynyl]-thiophene-2-sulfonic acid bis-(2-hydroxy-ethyl)-amide] | 174 °C
6 | CC(C)(O)c1cc(-c2ccc(Cl)cc2)nc2c(C#Cc3ccc(S(N)(=O)=O)cc3)cnn12 [Example 153, 4-[5-(4-Chloro-phenyl)-7-(1-hydroxy-1-methyl-ethyl)-pyrazolo[1,5-a]pyrimidin-3-ylethynyl]-benzenesulfonamide] | 267 to 269 °C
7 | CNS(=O)(=O)c1ccc(C#Cc2cnn3c(C(F)F)cc(-c4ccc(C(F)(F)F)cc4)nc23)cc1 [Example 138, 4-[7-difluoromethyl-5-(4-trifluoromethyl-phenyl)-pyrazolo[1,5-a]pyrimidin-3-ylethynyl]-N-methyl-benzenesulfonamide] | 202 to 203 °C
8 | NS(=O)(=O)c1cc(C#Cc2cnn3c(C(F)(F)F)cc(-c4ccc(Cl)c(Cl)c4)nc23)c(F)cc1F [Example 92, 5-[5-(3,4-Dichloro-phenyl)-7-trifluoromethyl-pyrazolo[1,5-a]pyrimidin-3-ylethynyl]-2,4-difluoro-benzenesulfonamide] | 308 to 310 °C
9 | NS(=O)(=O)c1cncc(C#Cc2cnn3c(C4CC4)cc(-c4ccc(Cl)cc4)nc23)c1 [Example 66, 5-[5-(4-Chloro-phenyl)-7-cyclopropyl-pyrazolo[1,5-a]pyrimidin-3-ylethynyl]-pyridine-3-sulfonic acid amide] | 252 to 254 °C
10 | CN1CCN(S(=O)(=O)c2ccc(C#Cc3cnn4c(C(F)F)cc(-c5ccc(C(F)(F)F)cc5)nc34)s2)CC1 [Example 252, 7-Difluoromethyl-3-[5-(4-methyl-piperazine-1-sulfonyl)-thiophen-2-ylethynyl]-5-(4-trifluoromethyl-phenyl)-pyrazolo[1,5-a]pyrimidine] | 226 °C
11 | Nc1ccc(C#Cc2cnn3c(C(F)(F)F)cc(-c4ccc(Cl)cc4)nc23)nn1 [Example 247, 6-[5-(4-Chloro-phenyl)-7-trifluoromethyl-pyrazolo[1,5-a]pyrimidin-3-ylethynyl]-pyridazin-3-ylamine] | 247 to 248 °C
12 | CC(=O)Nc1ncc(C#Cc2cnn3c(C(F)(F)F)cc(-c4ccc(C(F)(F)F)cc4)nc23)s1 [Example 291, N-{5-[7-Trifluoromethyl-5-(4-trifluoromethyl-phenyl)-pyrazolo[1,5-a]pyrimidin-3-ylethynyl]-thiazol-2-yl}-acetamide] | 302 °C
13 | CC(C)(CO)NS(=O)(=O)c1ccc(C#Cc2cnn3c(C(F)(F)F)cc(-c4ccc(C(F)(F)F)cc4)nc23)s1 [Example 120, 5-[7-Trifluoromethyl-5-(4-trifluoromethyl-phenyl)-pyrazolo[1,5-a]pyrimidin-3-ylethynyl]-thiophene-2-sulfonic acid (2-hydroxy-1,1-dimethyl-ethyl)-amide] | 272 °C
14 | NS(=O)(=O)c1cccc(C#Cc2cnn3c(C(F)(F)F)cc(-c4ccc(Cl)cc4)nc23)c1 [Example 98, 3-[5-(4-Chloro-phenyl)-7-trifluoromethyl-pyrazolo[1,5-a]pyrimidin-3-ylethynyl]-benzenesulfonamide] | 218 to 220 °C
15 | Oc1cncc(C#Cc2cnn3c(C(F)(F)F)cc(-c4ccc(C(F)(F)F)cc4)nc23)c1 [Example 58, 5-[7-Trifluoromethyl-5-(4-trifluoromethyl-phenyl)-pyrazolo[1,5-a]pyrimidin-3-ylethynyl]-pyridin-3-ol] | 258 to 260 °C
16 | NS(=O)(=O)c1ccc(C#Cc2cnn3c(CO)cc(-c4ccc(Cl)cc4)nc23)s1 [Example 156, 5-[5-(4-Chloro-phenyl)-7-hydroxymethyl-pyrazolo[1,5-a]pyrimidin-3-ylethynyl]-thiophene-2-sulfonic acid amide] | 194 to 196 °C
17 | Cc1ccc(C#Cc2cnn3c(C(F)(F)F)cc(-c4ccc(C(F)(F)F)cc4)nc23)cn1 [Example 9, 3-(6-Methyl-pyridin-3-ylethynyl)-7-trifluoromethyl-5-(4-trifluoromethyl-phenyl)-pyrazolo[1,5-a]pyrimidine] | 195 °C
18 | O=S(=O)(Nc1cccnc1)c1ccc(C#Cc2cnn3c(C(F)F)cc(-c4ccc(C(F)(F)F)cc4)nc23)s1 [Example 281, 5-[7-Difluoromethyl-5-(4-trifluoromethyl-phenyl)-pyrazolo[1,5-a]pyrimidin-3-ylethynyl]-thiophene-2-sulfonic acid pyridin-3-ylamide] | 226 °C
19 | CC(O)c1ccc(C#Cc2cnc3c(C(F)(F)F)cc(-c4ccc(C(F)(F)F)cc4)cn23)cc1 (stereo not drawn) [Example 195, 1-{4-[8-Trifluoromethyl-6-(4-trifluoromethyl-phenyl)-imidazo[1,2-a]pyridin-3-ylethynyl]-phenyl}-ethanol] | 157 to 158 °C
20 | O=S(=O)(NCCO)c1cccc(C#Cc2cnn3c(C(F)(F)F)cc(-c4ccc(C(F)(F)F)cc4)nc23)c1 [Example 132, N-(2-Hydroxy-ethyl)-3-[7-trifluoromethyl-5-(4-trifluoromethyl-phenyl)-pyrazolo[1,5-a]pyrimidin-3-ylethynyl]-benzenesulfonamide] | 213 °C
21 | NS(=O)(=O)c1cc(C#Cc2cnn3c(C(F)(F)F)cc(-c4ccc(C(F)(F)F)cc4)nc23)ccc1F [Example 50, 2-Fluoro-5-[7-trifluoromethyl-5-(4-trifluoromethyl-phenyl)-pyrazolo[1,5-a]pyrimidin-3-ylethynyl]-benzenesulfonamide] | 254 to 255 °C
22 | O=S(=O)(NCc1cccnc1)c1ccc(C#Cc2cnn3c(C(F)(F)F)cc(-c4ccc(C(F)(F)F)cc4)nc23)s1 [Example 273, 5-[7-Trifluoromethyl-5-(4-trifluoromethyl-phenyl)-pyrazolo[1,5-a]pyrimidin-3-ylethynyl]-thiophene-2-sulfonic acid (pyridin-3-ylmethyl)-amide] | 177 °C
23 | CS(=O)(=O)Nc1ccc(C#Cc2cnn3c(C(F)(F)F)cc(-c4ccc(C(F)(F)F)cc4)nc23)cn1 [Example 216, N-{5-[7-Trifluoromethyl-5-(4-trifluoromethyl-phenyl)-pyrazolo[1,5-a]pyrimidin-3-ylethynyl]-pyridin-2-yl}-methanesulfonamide] | 261 to 263 °C
24 | Nc1ccc(C#Cc2cnn3ccc(-c4ccc(C(F)(F)F)cc4)nc23)cn1 [Example 310, 5-[5-(4-Trifluoromethyl-phenyl)-pyrazolo[1,5-a]pyrimidin-3-ylethynyl]-pyridin-2-ylamine] | 213 to 214 °C
25 | O=S(=O)(NCc1cccnc1)c1ccc(C#Cc2cnn3c(C(F)F)cc(-c4ccc(C(F)(F)F)cc4)nc23)s1 [Example 278, 5-[7-Difluoromethyl-5-(4-trifluoromethyl-phenyl)-pyrazolo[1,5-a]pyrimidin-3-ylethynyl]-thiophene-2-sulfonic acid (pyridin-3-ylmethyl)-amide] | 152 °C
26 | NS(=O)(=O)c1ccc(C#Cc2cnc3c(C(F)(F)F)cc(-c4ccc(C(F)(F)F)cc4)nn23)s1 [Example 236, 5-[8-Trifluoromethyl-6-(4-trifluoromethyl-phenyl)-imidazo[1,2-b]pyridazin-3-ylethynyl]-thiophene-2-sulfonic acid amide] | 261 to 263 °C
27 | O=S(=O)(NCCO)c1cccc(C#Cc2cnn3c(C(F)F)cc(-c4ccc(C(F)(F)F)cc4)nc23)c1 [Example 147, 3-[7-Difluoromethyl-5-(4-trifluoromethyl-phenyl)-pyrazolo[1,5-a]pyrimidin-3-ylethynyl]-N-(2-hydroxy-ethyl)-benzenesulfonamide] | 113 to 115 °C
28 | CN1CCN(S(=O)(=O)c2ccc(C#Cc3cnn4c(C(F)(F)F)cc(-c5cccc(C(F)(F)F)c5)nc34)s2)CC1 [Example 249, 3-[5-(4-Methyl-piperazine-1-sulfonyl)-thiophen-2-ylethynyl]-7-trifluoromethyl-5-(3-trifluoromethyl-phenyl)-pyrazolo[1,5-a]pyrimidine] | 191 °C
29 | Cc1ccc(C#Cc2cnn3c(C(F)F)cc(-c4ccc(C(F)(F)F)cc4)nc23)cc1S(N)(=O)=O [Example 60, 5-[7-Difluoromethyl-5-(4-trifluoromethyl-phenyl)-pyrazolo[1,5-a]pyrimidin-3-ylethynyl]-2-methyl-benzenesulfonamide] | 265 to 267 °C
30 | Cc1ccc(C#Cc2cnn3c(C(F)(F)F)cc(-c4ccc(C(F)(F)F)cc4)nc23)cc1S(=O)(=O)NCCO [Example 34, N-(2-Hydroxy-ethyl)-2-methyl-5-[7-trifluoromethyl-5-(4-trifluoromethyl-phenyl)-pyrazolo[1,5-a]pyrimidin-3-ylethynyl]-benzenesulfonamide] | 174 to 175 °C
